In ChEMBL document CHEMBL5291721, “A preclinical secondary pharmacology resource illuminates target-adverse drug reaction associations of marketed drugs” (Nat Commun, 2023):

Key:
Androgen receptor = biological target: T1, Androgen receptor (Rattus norvegicus, UniProt P15207); format: functional
T1 sequence (P15207 whole entry): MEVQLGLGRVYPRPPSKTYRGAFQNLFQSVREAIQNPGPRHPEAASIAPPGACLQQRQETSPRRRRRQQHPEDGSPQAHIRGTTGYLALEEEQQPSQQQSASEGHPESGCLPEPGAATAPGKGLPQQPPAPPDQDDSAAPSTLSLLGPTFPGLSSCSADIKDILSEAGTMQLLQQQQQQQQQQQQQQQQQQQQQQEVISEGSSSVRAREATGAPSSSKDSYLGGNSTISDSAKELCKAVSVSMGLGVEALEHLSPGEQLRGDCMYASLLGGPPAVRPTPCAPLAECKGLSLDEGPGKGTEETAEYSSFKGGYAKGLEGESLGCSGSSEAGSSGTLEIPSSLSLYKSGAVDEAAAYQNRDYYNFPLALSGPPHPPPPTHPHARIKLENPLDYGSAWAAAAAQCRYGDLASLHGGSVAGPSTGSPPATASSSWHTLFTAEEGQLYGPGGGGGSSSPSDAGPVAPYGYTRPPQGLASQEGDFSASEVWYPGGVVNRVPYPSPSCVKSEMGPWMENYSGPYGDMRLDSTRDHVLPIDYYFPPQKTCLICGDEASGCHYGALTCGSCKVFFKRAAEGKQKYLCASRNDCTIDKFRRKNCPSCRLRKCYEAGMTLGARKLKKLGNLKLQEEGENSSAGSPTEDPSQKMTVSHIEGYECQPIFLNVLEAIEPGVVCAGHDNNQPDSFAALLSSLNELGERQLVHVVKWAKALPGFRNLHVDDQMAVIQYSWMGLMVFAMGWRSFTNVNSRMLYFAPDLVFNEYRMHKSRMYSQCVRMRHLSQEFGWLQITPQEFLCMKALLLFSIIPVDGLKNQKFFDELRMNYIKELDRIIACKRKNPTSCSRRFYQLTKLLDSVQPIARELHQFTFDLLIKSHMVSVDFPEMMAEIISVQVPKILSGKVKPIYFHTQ

Progesterone receptor = biological target: T2, Progesterone receptor (Homo sapiens, UniProt P06401); format: functional
T2 sequence (P06401 whole entry): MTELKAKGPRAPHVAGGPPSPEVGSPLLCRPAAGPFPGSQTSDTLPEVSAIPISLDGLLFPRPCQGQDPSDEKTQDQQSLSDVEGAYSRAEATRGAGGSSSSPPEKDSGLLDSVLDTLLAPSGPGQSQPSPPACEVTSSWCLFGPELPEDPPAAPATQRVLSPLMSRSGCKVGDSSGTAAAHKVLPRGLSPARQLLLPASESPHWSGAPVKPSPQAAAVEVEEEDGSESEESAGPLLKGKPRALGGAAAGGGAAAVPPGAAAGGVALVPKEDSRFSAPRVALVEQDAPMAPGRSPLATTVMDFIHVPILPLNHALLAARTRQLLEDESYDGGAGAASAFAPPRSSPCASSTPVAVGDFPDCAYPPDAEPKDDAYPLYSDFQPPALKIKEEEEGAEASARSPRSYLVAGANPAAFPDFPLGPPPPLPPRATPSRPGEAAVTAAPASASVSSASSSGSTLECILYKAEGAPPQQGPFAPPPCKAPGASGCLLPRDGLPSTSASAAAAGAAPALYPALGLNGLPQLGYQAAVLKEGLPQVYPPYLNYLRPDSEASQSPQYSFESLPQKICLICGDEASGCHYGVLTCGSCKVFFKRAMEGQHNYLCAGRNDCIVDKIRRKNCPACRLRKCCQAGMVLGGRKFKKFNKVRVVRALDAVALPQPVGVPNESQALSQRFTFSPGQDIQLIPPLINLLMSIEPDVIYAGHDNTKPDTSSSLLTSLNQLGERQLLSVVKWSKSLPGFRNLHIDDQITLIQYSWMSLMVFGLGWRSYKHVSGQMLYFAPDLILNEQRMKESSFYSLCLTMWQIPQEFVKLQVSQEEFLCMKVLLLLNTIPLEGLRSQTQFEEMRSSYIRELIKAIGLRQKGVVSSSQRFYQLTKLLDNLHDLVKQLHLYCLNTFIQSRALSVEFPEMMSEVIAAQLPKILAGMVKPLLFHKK

[1] = biological target: T3, 5-hydroxytryptamine receptor 1A (Homo sapiens, UniProt P08908); format: functional, cell-based
T3 sequence (P08908 whole entry): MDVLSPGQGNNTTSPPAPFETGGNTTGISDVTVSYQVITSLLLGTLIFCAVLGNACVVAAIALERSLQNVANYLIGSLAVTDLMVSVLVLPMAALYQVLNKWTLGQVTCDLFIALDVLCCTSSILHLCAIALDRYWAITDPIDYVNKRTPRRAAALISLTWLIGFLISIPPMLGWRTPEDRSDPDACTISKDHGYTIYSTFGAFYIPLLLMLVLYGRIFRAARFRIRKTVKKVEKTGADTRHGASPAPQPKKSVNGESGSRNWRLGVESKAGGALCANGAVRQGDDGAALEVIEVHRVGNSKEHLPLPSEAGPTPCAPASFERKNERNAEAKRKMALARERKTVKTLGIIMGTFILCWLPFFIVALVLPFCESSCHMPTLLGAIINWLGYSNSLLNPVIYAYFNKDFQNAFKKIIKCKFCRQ

Estrogen receptor = biological target: T4, Estrogen receptor (Homo sapiens, UniProt P03372)
T4 sequence (P03372 whole entry): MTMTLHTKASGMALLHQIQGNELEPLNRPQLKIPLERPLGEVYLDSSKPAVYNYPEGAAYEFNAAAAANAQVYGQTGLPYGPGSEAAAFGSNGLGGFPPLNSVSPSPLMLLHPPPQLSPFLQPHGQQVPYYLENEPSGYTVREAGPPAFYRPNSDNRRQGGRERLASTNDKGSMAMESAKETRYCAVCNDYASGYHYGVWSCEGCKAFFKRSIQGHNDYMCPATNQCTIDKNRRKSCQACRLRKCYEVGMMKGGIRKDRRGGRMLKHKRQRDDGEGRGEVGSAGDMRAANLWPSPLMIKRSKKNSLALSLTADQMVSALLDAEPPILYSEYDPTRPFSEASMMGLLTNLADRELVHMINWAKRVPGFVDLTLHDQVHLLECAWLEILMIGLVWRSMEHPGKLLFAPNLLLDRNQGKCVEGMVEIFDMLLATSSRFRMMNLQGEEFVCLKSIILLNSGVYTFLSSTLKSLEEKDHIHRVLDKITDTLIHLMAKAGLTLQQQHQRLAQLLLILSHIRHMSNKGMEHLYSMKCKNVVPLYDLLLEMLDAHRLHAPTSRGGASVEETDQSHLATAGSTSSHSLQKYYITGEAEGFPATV

D(1A) dopamine receptor = D(1A) dopamine receptor (Homo sapiens, UniProt P21728); format: functional, cell-based
[2] = biological target: Beta-2 adrenergic receptor (Homo sapiens, UniProt P07550)

Measured: AC50
Further: assay procedure not described here.

D(1A) dopamine receptor, sequence (P21728 whole entry): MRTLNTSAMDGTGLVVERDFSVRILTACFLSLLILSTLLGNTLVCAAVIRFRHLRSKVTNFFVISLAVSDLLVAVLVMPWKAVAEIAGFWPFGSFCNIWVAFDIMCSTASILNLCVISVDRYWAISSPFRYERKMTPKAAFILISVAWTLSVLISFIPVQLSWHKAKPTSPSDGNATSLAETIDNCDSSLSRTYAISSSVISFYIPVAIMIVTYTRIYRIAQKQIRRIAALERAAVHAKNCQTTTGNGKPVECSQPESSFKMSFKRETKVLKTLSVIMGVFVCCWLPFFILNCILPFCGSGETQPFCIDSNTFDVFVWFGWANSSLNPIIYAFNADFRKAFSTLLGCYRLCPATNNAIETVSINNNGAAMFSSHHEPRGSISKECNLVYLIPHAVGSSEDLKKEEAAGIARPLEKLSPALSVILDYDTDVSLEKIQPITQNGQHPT

HYDROXOCOBALAMIN
> 30 µM: Androgen receptor | Progesterone receptor | [1] | Estrogen receptor | D(1A) dopamine receptor | [2]
